According to patent US20120142771A1, “BIPHENYLACETAMIDE DERIVATIVE” (Dainippon Sumitomo Pharma Co., Ltd., priority 2008, published 2012):
Where two headings read alike, the source gives them in different places.

How the values were obtained:
[1] = system: maximum electroshock seizure (MES) model; test: Maximum electroshock seizure (MES) model test; type: in vivo, mice; details: for responders at 50 mg/kg / responders at 100 mg/kg: Mus musculus, po, 1 h, inhibition of hind limb extension; for anticonvulsant action in maximum electroshock seizure (MES) model test: mice, oral 50 or 100 mg/kg, 1 hour after administration
Method in brief: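 Tonic hind-limb extension was elicited by corneal electroshock (60 Hz, 25 mA, 0.2 s) 1 h after oral dosing. Test compounds were given at 50 or 100 mg/kg to groups of 3 male Slc: ddY mice (20-30 g), vehicle controls receiving 0.5% tragacanth or 0.5% methylcellulose solution.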

[2] = system: subcutaneously pentetrazol-injected model (scPTZ); test: Subcutaneously pentetrazol-injected model (scPTZ) test; type: in vivo, mice; details: for responders at 50 mg/kg / responders at 100 mg/kg: Mus musculus, po, 1 h; for anticonvulsant action in subcutaneously pentetrazol-injected model (scPTZ) test: mice, oral 50 or 100 mg/kg
Method in brief: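 Pentetrazol (85 mg/kg, s.c.) was injected one hour after oral test compound at 50 or 100 mg/kg in groups of three male Slc:ddY mice weighing 20-30 g; vehicle controls got 0.5% tragacanth or 0.5% methylcellulose.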

[3] = 50 mg/kg oral, Slc: ddY male mice, 3 per group, electrical stimulation 1 hour after administration, read-out: MES (positive number/tested number) (converted)
[4] = 100 mg/kg oral, Slc: ddY male mice, 3 per group, electrical stimulation 1 hour after administration, read-out: MES (positive number/tested number) (converted)
[5] = 50 mg/kg oral, Slc: ddY male mice, 3 per group, pentetrazol 85 mg/kg s.c. after 1 hour, observed 30 minutes for clonic convulsion, read-out: scPTZ (positive number/tested number) (converted)
[6] = 100 mg/kg oral, Slc: ddY male mice, 3 per group, pentetrazol 85 mg/kg s.c. after 1 hour, observed 30 minutes for clonic convulsion, read-out: scPTZ (positive number/tested number) (converted)
[7] = pentetrazol 85 mg/kg s.c. after 1 hour
[8] = read-out: MES (positive number/tested number), 50 mg/kg oral, Slc: ddY male mice, 3 per group, electrical stimulation 1 hour after administration
[9] = read-out: MES (positive number/tested number), 100 mg/kg oral, Slc: ddY male mice, 3 per group, electrical stimulation 1 hour after administration
[10] = read-out: scPTZ (positive number/tested number), 50 mg/kg oral, Slc: ddY male mice, 3 per group, pentetrazol 85 mg/kg s.c. after 1 hour, observed 30 minutes for clonic convulsion
[11] = read-out: scPTZ (positive number/tested number), 100 mg/kg oral, Slc: ddY male mice, 3 per group, pentetrazol 85 mg/kg s.c. after 1 hour, observed 30 minutes for clonic convulsion

Compound	responders at 50 mg/kg [1, 3] [%]	responders at 100 mg/kg [1, 4] [%]	responders at 100 mg/kg [2, 6] [%]	other results
CNC(=O)Cc1ccc(Cl)cc1-c1ccccc1F [Example 126, 2-(5-chloro-2′-fluorobiphenyl-2-yl)-N-methylacetamide]	0	66.7	100	responders at 50 mg/kg [2, 5]: 66.7%
NC(=O)Cc1ccc(Cl)cc1-c1cccc(Cl)c1 [Example 127]		66.7	33.3	
CNC(=O)Cc1ccc(Cl)cc1-c1cccc(Cl)c1 [Example 128]		66.7	0	
NC(=O)Cc1cc(Cl)ccc1-c1ccc(F)cc1 [Example 129]		100	33.3	
CNC(=O)Cc1cc(Cl)ccc1-c1ccc(F)cc1 [Example 130]		100	0	
NC(=O)Cc1cc(F)ccc1-c1ccc(Cl)cc1 [Example 131]		100	0	
CNC(=O)Cc1cc(F)ccc1-c1ccc(Cl)cc1 [Example 132]		100	0	
NC(=O)Cc1cc(F)ccc1-c1cccc(F)c1 [Example 133]		100	33.3	
CNC(=O)Cc1cc(F)ccc1-c1cccc(F)c1 [Example 134]		100	0	
NC(=O)Cc1cc(F)ccc1-c1ccc(C(F)(F)F)cc1 [Example 135]		100	0	
CNC(=O)Cc1cc(F)ccc1-c1ccc(C(F)(F)F)cc1 [Example 136]		100	0	
NC(=O)Cc1cc(C(F)(F)F)ccc1-c1ccc(Cl)cc1 [Example 137]		0	66.7	
CNC(=O)Cc1cc(C(F)(F)F)ccc1-c1ccc(Cl)cc1 [Example 138]		0	66.7	
NC(=O)Cc1cc(Cl)ccc1-c1cccc(F)c1 [Example 139]		66.7	33.3	
NC(=O)Cc1c(F)cccc1-c1cccc(F)c1 [Example 140, 2-(3,3′-difluorobiphenyl-2-yl)acetamide]	100	100	66.7	anticonvulsant action in maximum electroshock seizure (MES) model test [1]: anticonvulsant action was observed; responders at 50 mg/kg [2, 5]: 66.7%; anticonvulsant action in subcutaneously pentetrazol-injected model (scPTZ) test [2, 7]: anticonvulsant action was observed
CNC(=O)Cc1c(F)cccc1-c1cccc(F)c1 [Example 141]		66.7	0	
NC(=O)Cc1cc(Cl)ccc1-c1ccc(C(F)(F)F)cc1 [Example 142, 2-[4-chloro-4′-(trifluoromethyl)biphenyl-2-yl]acetamide]	33.3	66.7	66.7	responders at 50 mg/kg [2, 5]: 100%
CNC(=O)Cc1cc(Cl)ccc1-c1ccc(C(F)(F)F)cc1 [Example 143]		0	100	
NC(=O)Cc1cc(C(F)(F)F)ccc1-c1cccc(F)c1 [Example 144]		33.3	66.7	
CC(C)(C)NC(=O)Cc1ccccc1-c1ccccc1F [Example 145]		0	33.3	
CNC(=O)Cc1cc(F)c(F)cc1-c1cccc(F)c1 [Example 148]		0	33.3	

Compound	responders at 50 mg/kg [1, 3] [%]	responders at 100 mg/kg [1, 4] [%]	responders at 100 mg/kg [2, 6] [%]	other results
NC(=O)Cc1ccc(C(F)(F)F)cc1-c1cccc(F)c1 [Example 149, 2-[3′-fluoro-5-(trifluoromethyl)biphenyl-2-yl]acetamide]	33.3	66.7	66.7	responders at 50 mg/kg [2, 5]: 0%
NC(=O)Cc1ccc(F)cc1-c1cc(Cl)cc(Cl)c1 [Example 150, 2-(3′,5′-dichloro-5-fluorobiphenyl-2-yl)acetamide]	100	100	100	responders at 50 mg/kg [2, 5]: 33.3%
CNC(=O)Cc1ccc(F)cc1-c1cc(Cl)cc(Cl)c1 [Example 151]		66.7	0	
NC(=O)Cc1ccccc1-c1cc(F)ccc1F [Example 152, 2-(2′,5′-difluorobiphenyl-2-yl)acetamide]	100	100	100	anticonvulsant action in maximum electroshock seizure (MES) model test [1]: anticonvulsant action was observed; responders at 50 mg/kg [2, 5]: 66.7%; anticonvulsant action in subcutaneously pentetrazol-injected model (scPTZ) test [2, 7]: anticonvulsant action was observed
NC(=O)Cc1ccccc1-c1cc(F)cc(F)c1 [Example 153, 2-(3′,5′-difluorobiphenyl-2-yl)acetamide]	0	66.7	100	responders at 50 mg/kg [2, 5]: 0%
NC(=O)Cc1ccccc1-c1ccc(F)cc1F [Example 154]	33.3	100	33.3	
NC(=O)C1(c2ccccc2-c2ccccc2)CC1 [Example 155]		0	66.7	responders at 50 mg/kg [2, 5]: 0%
CNC(=O)C1(c2ccccc2-c2ccccc2)CC1 [Example 156]	0	100	33.3	
CNC(=O)C1(c2ccccc2-c2ccccc2F)CC1 [Example 157, 1-(2′-fluorobiphenyl-2-yl)-N-methyl-cyclopropane-carboxamide]	33.3	100	66.7	responders at 50 mg/kg [2, 5]: 66.7%
NC(=O)C1(c2ccccc2-c2cccc(F)c2)CC1 [Example 158]		0	66.7	
CNC(=O)C1(c2ccccc2-c2cccc(F)c2)CC1 [Example 159, 1-(3′-fluorobiphenyl-2-yl)-N-methyl-cyclopropane-carboxamide]	33.3	66.7	66.7	responders at 50 mg/kg [2, 5]: 33.3%
NC(=O)C(F)c1ccccc1-c1cccc(F)c1 (stereo not drawn) [Example 160, 2-fluoro-2-(3′-fluorobiphenyl-2-yl)acetamide]	33.3	66.7	100	responders at 50 mg/kg [2, 5]: 66.7%
CNC(=O)C(F)c1ccccc1-c1cccc(F)c1 (stereo not drawn) [Example 161]		66.7	0	
NC(=O)C(F)c1ccccc1-c1ccccc1 (stereo not drawn) [Example 162, 2-(biphenyl-2-yl)-2-fluoroacetamide]				responders at 50 mg/kg [1, 8]: 100%; responders at 100 mg/kg [1, 9]: 100%; anticonvulsant action in maximum electroshock seizure (MES) model test [1]: anticonvulsant action was observed; responders at 50 mg/kg [2, 10]: 100%; responders at 100 mg/kg [2, 11]: 100%; anticonvulsant action in subcutaneously pentetrazol-injected model (scPTZ) test [2, 7]: anticonvulsant action was observed
CNC(=O)C(F)c1ccccc1-c1ccccc1 (stereo not drawn) [Example 163]	33.3	100	0	
NC(=O)C(F)c1ccccc1-c1ccccc1F (stereo not drawn) [Example 164, 2-fluoro-2-(2′-fluorobiphenyl-2-yl)acetamide]	100	100	33.3	
CNC(=O)C(F)c1ccccc1-c1ccccc1F (stereo not drawn) [Example 165, 2-fluoro-2-(2′-fluorobiphenyl-2-yl)-N-methylacetamide]	66.7	100	33.3	
CNC(=O)C(F)c1ccccc1-c1ccc(F)cc1 (stereo not drawn) [Example 166, 2-fluoro-2-(4′-fluorobiphenyl-2-yl)-N-methylacetamide]	66.7	100	66.7	responders at 50 mg/kg [2, 5]: 33.3%
NC(=O)C(F)c1ccccc1-c1cccc(Cl)c1 (stereo not drawn) [Example 167, 2-(3′-chlorobiphenyl-2-yl)-2-fluoroacetamide]				responders at 50 mg/kg [1, 8]: 33.3%; responders at 100 mg/kg [1, 9]: 100%; responders at 50 mg/kg [2, 10]: 66.7%; responders at 100 mg/kg [2, 11]: 100%
CNC(=O)C(F)(F)c1ccccc1-c1ccccc1 [Example 168]	33.3	100	33.3	
NC(=O)C(F)(F)c1ccccc1-c1ccccc1F [Example 169]		100	33.3	
